Data published in patent publication US20170326165A1, “USE OF RIBOSE IN FIRST RESPONSE TO ACUTE MYOCARDIAL INFARCTION” (BIOENERGY, INC., priority 2008, published 2017).

Legend:
[1] = tested on: myocardial dysfunction resulting from globally induced ischemia during cardiac surgical procedures; assay type: in vivo, human
Experimental: B. A preconditioning study was performed in human patients scheduled for surgery.
Inclusion criteria were: • Males or females aged 18 or older • Patients with documented coronary artery disease undergoing CABG with an ejection fraction (EF) of 35% based on echocardiography, radionuclide imaging or cardiac catheterization done within eight weeks of surgery. (If more than one method was used to evaluate EF during this period, the mean values of the various methods were 35%). • Patients undergoing single or double valve replacement with documented coronary artery disease also undergoing CABG; or patients undergoing single or double valve replacement without CABG • Serum creatinine of <2.35 mg/dl • For females of childbearing potential, a negative pregnancy test. • Signed consent forms.
The test article, placebo or ribose, was dispensed according to computer-generated randomization schedule either for patients undergoing CABG only or for patients undergoing heart valve surgery +/−CABG. All patients received a high dose narcotic anaesthesia technique consisting of either fentanyl (50-100 μg/kg) or sufentanil (10-20 μg/kg) and midazolam. No restriction was placed on the type of anaesthetic agents administered. The anaesthesiologists and surgeons responsible for the care of the patents made the clinical decision to use inotropic support, intra-aortic balloon pump support or post bypass circulatory support based on their knowledge of patients requirements and accepted medical practice and without regard to test article status. The test article infusion was started intravenously at the time of aortic cross clamping and continued until the pulmonary artery catheters introducer was removed or for five days (120) hours whichever occurred first. The surgeons responsible for the clinical care of the patients removed the pulmonary artery catheter cordis without regard to test article stats.
Hemodynamic measurements consisting of heart rate, blood pressure, pulmonary artery pressures, pulmonary capillary wedge pressure (PCWP), central venous pressure (CVP) and thermodilution cardiac index (CI) were obtained at the following time intervals: immediately prior to induction of anaesthesia, post induction of anaesthesia prior to sternotomy, post sternotomy prior to initiation of cardiopulmonary bypass, upon successful termination of cardiopulmonary bypass prior to sternal closure and prior to reversal of heparinization with protamine, post closure of the sternum, upon arrival in the intensive care unit and at one or two hour intervals until the pulmonary artery a catheter was removed.
Transesophageal echocardiography data (H.P. Sonos OR, 5.0 MHz, Andover, Mass.) was collected at the following time intervals: post induction of anaesthesia prior to sternotomy, and immediately post closure of the sternum. Transthoracic echocardiography (H.P. Sonos 1500. 2.5 MHz, Andover, Mass.) measurements were made on day three and day seven of the study period. For both the transesophageal and transthoracic echocardiograms, the following long axis and short axis mid-papillary area changes were measured in triplicate by acoustic quantification techniques: end diastolic area (EDA), end systolic area (ESA), fractional area change (FAC), +dA/dt and −dA/dt. All area change data were also analyzed by manual off line analysis. EF was also determined off line using a long axis view, In addition, regional wall motion was quantified as the following: normal=1, hypokinetic=2, akinetic=3 and dyskinetic=4. The wall motion index score (WMIS) and percentage normal myocardium were calculated by reading a maximum of sixteen segments. Echocardiography data for evaluating wall motion and area change was analyzed only if greater than 75% of the endocardial border could be visualized through a complete cardiac cycle. Off line analysis was performed on an Image View echocardiography workstation (Nova Microsonics, Allendale, N.J.). […]

[2] = tested on: patients undergoing OPCABG; assay: metabolically directed protocol: oral D-ribose prior to and following OPCABG; assay type: in vivo, human
Source text: (§1) Following the initial study described in Example 2, 366 consecutive patients, 41-88 years of age, undergoing OPCABG were enrolled. Of these, 89 had recent MIs and seven presented with MIs within one to seven days. Prospectively collected data included comorbidities, hemodynamics and outcomes. All patients were managed with a protocol emphasizing normoglycemia, normothermia and reduced inflammation. Group 1 (n=308) received multiple oral doses (5 gram/dose) of D-ribose prior to and following surgery. […] Otherwise, both groups had similar preoperative characteristics including ejection fraction (EJ) and Society for Thoracic Surgery (STS) Risk Indices with nonsignificant trends in the increased comorbidities in Group 1.

[3] = tested on: acute, first response MI patients; assay: first response acute MI patients given D-ribose (subset of Group 1); assay type: in vivo, human; details: seven first response MI patients
Source text: as §1
A. While these studies are promising, neither replicates the clinical situation of a patient presenting at first response with an acute myocardial infarction, where time is of the essence. In most cases, MI is a spontaneous event, but an MI can be induced during a procedure such as angiogram, angioplasty or dobutamine echocardiography. Such a patient is generally in the process of compromising cardiac function.
It should also be mentioned that these seven patients are included in Group 1 of Table I. With preloading with D-ribose, they were able to maintain and slightly increase their CI in comparison to the total group.

healthy dog hearts = details: administration immediately at reperfusion and continuing for at least four days; cited from earlier work
[4] = tested on: rats subjected to an anterior MI; details: intravenous ribose for 14 days previous to the inducement of MI; cited from earlier work
[5] = Group 1, oral D-ribose, p<0.001 versus Group 2

## O=C[C@H](O)[C@H](O)[C@H](O)CO [D-ribose]
[1]; both, human, in vivo
  patients who developed hypoglycemia (fingerstick glucose <70 mg/dl): 28%
[1]; human, in vivo
  lowest glucose level: 31 mg/dL
  mean glucose level in those patients developing hypoglycemia: 58 mg/dL
  neurological or other clinical symptoms associated with hypoglycemia: None
  subjects in whom study drug infusion was stopped because of hypoglycemia: two
[1]; ribose treated patients, Day 7, echocardiography, IV infusion 100 mg/kg/hr
  mean Day 7 EF: 41%
[1]; ribose treated patients, baseline, echocardiography, IV infusion 100 mg/kg/hr
  mean baseline EF: 44%
[2]; Group 1
  postoperative death: one
[2]; Group 1 (n=308), multiple oral doses 5 gram/dose prior to and following surgery, trend not significant
  time in intensive care: 72 h
[2]; Group 1 (n=308), oral D-ribose, trend not significant
  requirement for IABP: 12%
[2]; [5]
  increase in CI after surgery: 0.8
  patients demonstrating an increase in CI after OPCABG: 86%
[2]; Group 1, postoperative cardiac index
  Postop CI: 3.0 ± 0.7
[2]; Group 1, preoperative cardiac index
  Preop CI: 2.3 ± 0.5
[2]; Group 1 of Table I
  Change (Preop CI to Postop CI): +0.07
[3]
  Change (Preop CI to Postop CI): +0.41
  Postop CI: 2.60 ± 0.4
  Preop CI: 2.19 ± 0.7
Healthy dog hearts
  ATP recovery: enhanced ATP recovery
[4]
  parameters of heart function (LV diastolic diameter, LV systolic diameter, ejection fraction, shortening fraction): Significant improvement
